This experiment deals with T1, Cdc7 (BEV coexpressed huCDC7/DBF4) (Homo sapiens, UniProt O00311).
T1 construct: made in house; host or cells: baculovirus expression vector (BEV) system
Kind of experiment: Cdc7 enzyme inhibition assay ([33P]-ATP, biotinylated peptide substrate, FlashPlate). Conditions: Table 2; same assay as example 26. The experiment is classed as biochemical. On the procedure: Cdc7 (BEV coexpressed huCDC7/DBF4) is prepared internally. Cdc7 assays are conducted as follows with final concentrations as listed. In 384-well v-bottom polypropylene plates, 6 L compound (2% DMSO), is mixed with 6 µL of Cdc7 (2 μg/mL), and Jerini peptide substrate A-All (biotin-C6linker-TPSDSLIYDDGLS) (2 μM), followed by immediate initiation with 6 L […] (1 μM, 20 mCi/μmol) using a reaction buffer comprising 25 mM HEPES, pH 7.5, 1 mM DTT, 10 mM MgCl2, 100 μM Na3VO4, 0.075 mg/ml Triton X-100. Reactions are quenched after 1 hr by the addition of 90 L stop buffer (50 mM EDTA, 2M NaCl). 85 μL of the stopped reactions are transferred to 384-well streptavidin-coated plates (FlashPlate Plus, Perkin Elmer), incubated 30 minutes at room temperature and washed 3 times with 0.05% Tween-20/PBS using an ELX-405 automated plate washer (BioTek), and counted on a TopCount Scintillation Plate Reader (Packard). IC50 values are determined via non-linear regression fitting of enzyme inhibition data and corresponding Ki values are generated assuming ATP-competitive (equilibrium) inhibition and using the experimentally determined apparent ATP Km of 0.7 μM (as determined using the above assay condition, but varying ATP). Table 1 depicts enzyme inhibition data (Ki) for exemplary compounds. In Table 1, “A” represents a Ki of less than 10 nM, “B” represents a Ki of between 10 nM and 100 nM, and “C” represents a Ki of greater than 100 nM.
Table 2 depicts enzyme inhibition data (Ki) for examples 27-43 using the same assay as example 26. In Table 2, “A” represents a Ki of less than 10 nM, “B” represents a Ki of between 10 nM and 100 nM, and “C” represents a Ki of greater than 100 nM.

Where only a bound is given, the exact number is not on record here.

T1 sequence (O00311 whole entry): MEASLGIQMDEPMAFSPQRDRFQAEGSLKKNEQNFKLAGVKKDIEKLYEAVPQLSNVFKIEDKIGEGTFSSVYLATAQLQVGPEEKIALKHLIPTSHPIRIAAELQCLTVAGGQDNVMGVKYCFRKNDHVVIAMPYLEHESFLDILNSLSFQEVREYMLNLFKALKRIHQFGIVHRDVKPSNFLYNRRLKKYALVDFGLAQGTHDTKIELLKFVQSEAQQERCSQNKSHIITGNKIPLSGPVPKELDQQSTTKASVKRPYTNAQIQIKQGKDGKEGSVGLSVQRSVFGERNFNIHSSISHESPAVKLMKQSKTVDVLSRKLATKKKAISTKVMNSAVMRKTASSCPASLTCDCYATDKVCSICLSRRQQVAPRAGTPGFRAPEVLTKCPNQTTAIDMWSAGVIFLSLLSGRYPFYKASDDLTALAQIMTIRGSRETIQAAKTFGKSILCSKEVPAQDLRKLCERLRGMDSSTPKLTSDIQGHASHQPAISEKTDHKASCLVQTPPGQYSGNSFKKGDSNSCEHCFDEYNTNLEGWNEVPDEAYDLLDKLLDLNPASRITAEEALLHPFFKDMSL
T1 sequence (Q9UBU7 whole entry partner): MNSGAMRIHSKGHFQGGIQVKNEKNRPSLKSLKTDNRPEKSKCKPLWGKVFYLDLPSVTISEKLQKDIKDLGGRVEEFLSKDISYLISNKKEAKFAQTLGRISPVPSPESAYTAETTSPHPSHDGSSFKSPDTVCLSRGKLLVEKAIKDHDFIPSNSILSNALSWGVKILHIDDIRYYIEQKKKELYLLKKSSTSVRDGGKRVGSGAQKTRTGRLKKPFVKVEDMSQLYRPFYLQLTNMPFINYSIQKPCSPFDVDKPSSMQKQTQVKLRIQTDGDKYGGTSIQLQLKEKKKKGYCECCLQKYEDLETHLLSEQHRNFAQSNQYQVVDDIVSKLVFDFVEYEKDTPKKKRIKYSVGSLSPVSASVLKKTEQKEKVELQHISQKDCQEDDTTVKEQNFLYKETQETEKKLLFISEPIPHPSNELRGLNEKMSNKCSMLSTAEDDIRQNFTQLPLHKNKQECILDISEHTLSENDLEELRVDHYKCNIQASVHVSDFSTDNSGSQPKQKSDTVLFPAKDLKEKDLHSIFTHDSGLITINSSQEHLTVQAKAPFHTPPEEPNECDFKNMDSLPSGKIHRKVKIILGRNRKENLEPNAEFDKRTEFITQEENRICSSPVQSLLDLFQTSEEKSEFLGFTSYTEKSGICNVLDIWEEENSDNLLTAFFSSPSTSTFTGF

As to `O[C@H]1CC[C@H](Nc2cc(-c3c[nH]c4ncc(Br)nc34)cc(Cl)n2)CC1` [Example 34, trans 4-{[4-(2-bromo-5H-pyrrolo[2,3-b]pyrazin-7-yl)-6-chloropyridin-2-yl]amino}cyclohexanol], the Ki (as a rule, the dissociation constant of the complex between target and ligand, obtained from inhibition or displacement) is under 10 nM.
As for `Clc1cc(-c2c[nH]c3ncc(Cl)nc23)cc(NC2CCCCC2)n1` [Example 35, 6-chloro-4-(2-chloro-5H-pyrrolo[2,3-b]pyrazin-7-yl)-N-cyclohexylpyridin-2-amine], the figure is under 10 nM.
The figure for `O=C(O)c1cnc2[nH]cc(-c3cc(Cl)nc(NC4CCCCC4)c3)c2n1` [Example 36, 7-[2-chloro-6-(cyclohexylamino)pyridin-4-yl]-5H-pyrrolo[2,3-b]pyrazine-2-carboxylic acid] is under 10 nM.
The figure for `N#Cc1cnc2[nH]cc(-c3cc(Cl)nc(NC4CCCCC4)c3)c2n1` [Example 37, 7-[2-chloro-6-(cyclohexylamino)pyridin-4-yl]-5H-pyrrolo[2,3-b]pyrazine-2-carbonitrile] is under 10 nM; for `Clc1cc(-c2c[nH]c3ncc(-c4ccccc4)nc23)cc(NC2CCCCC2)n1` [Example 38, 6-chloro-N-cyclohexyl-4-(2-phenyl-5H-pyrrolo[2,3-b]pyrazin-7-yl)pyridin-2-amine] it is 10 to 100 nM.
Consider `Clc1cc(-c2c[nH]c3ncc(Nc4ccccc4)nc23)cc(NC2CCCCC2)n1` [Example 39, 7-[2-chloro-6-(cyclohexylamino)pyridin-4-yl]-N-phenyl-5H-pyrrolo[2,3-b]pyrazin-2-amine], for which the Ki fell in the range of 10 to 100 nM.
As for `Clc1cc(-c2c[nH]c3ncc(NCCCc4ccccc4)nc23)cc(NC2CCCCC2)n1` [Example 40, 7-[2-chloro-6-(cyclohexylamino)pyridin-4-yl]-N-(3-phenylpropyl)-5H-pyrrolo[2,3-b]pyrazin-2-amine], the figure is 10 to 100 nM; as for `Clc1cc(-c2c[nH]c3ncc(-c4cnccn4)nc23)cc(NC2CCCCC2)n1` [Example 41, 6-chloro-N-cyclohexyl-4-[2-(pyrazin-2-yl)-5H-pyrrolo[2,3-b]pyrazin-7-yl]pyridin-2-amine], under 10 nM; as for `COc1cc(N2CCC(N3CCN(C)CC3)CC2)ccc1Nc1cnc2[nH]cc(-c3cc(Cl)nc(NC4CCCCC4)c3)c2n1` [Example 42, 7-[2-chloro-6-(cyclohexylamino)pyridin-4-yl]-N-{2-methoxy-4-[4-(4-methylpiperazin-1-yl)piperidin-1-yl]phenyl}-5H-pyrrolo[2,3-b]pyrazin-2-amine], under 10 nM.
As for `Clc1cc(-c2c[nH]c3ncc(/C=C/c4ccncc4)nc23)cc(NC2CCCCC2)n1` [Example 43, 6-chloro-N-cyclohexyl-4-{2-[(E)-2-(pyridin-4-yl)ethenyl]-5H-pyrrolo[2,3-b]pyrazin-7-yl}pyridin-2-amine], the Ki was under 10 nM.
